Data as given in patent US20110195153A1, “Nutritional Formulation Comprising A Cows Milk Peptide Containing Hydrolysate And Or Peptides Derived Thereof For Tolerance Induction” (MEAD JOHNSON NUTRITION COMPANY, priority 2009, published 2011).
Values joined by “and” are separate entries in the source; they are usually repeats but may differ in a detail not shown here. Equal values may be shown once.

Tested on: T-cells
Experiment: Tolerance induction experiment: T-cell fraction preincubated, combined with APCs and re-stimulated
Assay type: cell-based, human
Details: for mean cpm / cpm / SI: individual KF1; for cpm: individual experiments; for proliferation of T-cells when re-stimulated with cow's milk protein after preincubation with the substance: re-stimulated with whey protein concentrate VTP14 or rαS1-casein, in words
Experimental: For the tolerance induction experiment, PBMCs from healthy donors were isolated by Ficoll-density gradient, and the cells were further separated into two fractions. T-cells were enriched with a human Pan-T-cell isolation Kit (Miltenyi, Bergisch Gladbach, Germany), whereas antigen-presenting cells were enriched with human CD3 MicroBeads (Miltenyi, Bergisch Gladbach, Germany) by magnetic cell sorting.
The cell fractions containing the T-cells were incubated overnight with different peptides or medium alone at 37° C. with 5% CO2 and 95% humidity, the antigen-presenting-cell fractions were kept overnight at the same conditions without any antigens. On the next day, the T-cell fractions were washed with DPBS (GIBCO) three times and the T-cell and antigen-presenting-cell fractions were combined. The cells (2×10^5 cells per well) were cultured in triplicates in 96-well plates as described above. […] The analysis was done as described for the lymphoproliferative assays.
T-cell fractions were preincubated over night with high amounts of Nutramigen™ base (VTP11), extensive casein hydrolysate (VTP15), whole cow's milk whey protein (VTP14), Nutramigen™ (VTP3), synthetic peptides ([…], Phl p 5-Pep 1) or buffer (UCO). On the next day the T-cells and the APCs were combined and stimulated with milk samples (VTP14, VTP1). T cell stimulation is given either in counts per minute (cpm) or as stimulation index (SI).

[1] = T-cells tolerized with the substance, stimulated with UCO
[2] = tolerized with the substance, stimulated with IL-2
[3] = tolerized with the substance, stimulated with VTP1, first line
[4] = tolerized with the substance, stimulated with VTP1, second line
[5] = tolerized with the substance, stimulated with VTP14, first line
[6] = tolerized with the substance, stimulated with VTP14, second line

Row | Sequence | mean cpm [1] | SI [2] | mean cpm [2] | SI [3] | mean cpm [3] | SI [4] | mean cpm [4] | SI [5] | mean cpm [5] | SI [6] | mean cpm [6] | proliferation of T-cells when re-stimulated with cow's milk protein after preincubation with the substance | also measured
1 | CGAASNKAFAEGLSGEPKGAAESSSKAALTSK (Phleum pratense) [Phl P5-peptide 1, control peptide, grass pollen allergen] | 12522 cpm | 1.2 | 14724 cpm | 0.3 | 4295 cpm | 0.5 | 6355 cpm | 3.4 | 41970 cpm | 0.2 | 2336 cpm | – | cpm (T-cells tolerized with the substance, stimulated with UCO, listed as Ph1 p 5-Pep 1): 11263 cpm and 13457 cpm and 12846 cpm; cpm (tolerized with the substance, stimulated with IL-2, listed as Ph1 p 5-Pep 1): 14153 cpm and 17806 cpm and 12214 cpm; cpm (tolerized with the substance, stimulated with VTP1, first line, listed as Ph1 p 5-Pep 1): 4708 cpm and 3278 cpm and 4898 cpm; cpm (tolerized with the substance, stimulated with VTP1, second line, listed as Ph1 p 5-Pep 1): 6315 cpm and 6342 cpm and 6409 cpm; cpm (tolerized with the substance, stimulated with VTP14, first line, listed as Ph1 p 5-Pep 1): 38430 cpm and 45751 cpm and 41730 cpm; cpm (tolerized with the substance, stimulated with VTP14, second line, listed as Ph1 p 5-Pep 1): 3282 cpm and 2244 cpm and 1482 cpm
2 | CLKKYKVPQLEIVPNSAEERLHSMKEGIHAQQKE (listed as Bos taurus) [Cas4] | 16151 cpm | 0.9 | 14533 cpm | 0.4 | 6304 cpm | 0.4 | 6621 cpm | 1.3 | 20794 cpm | 0.2 | 3747 cpm | suppress the proliferation of T-cells | cpm (T-cells tolerized with the substance, stimulated with UCO, listed as αS2-PEP 4): 17694 cpm and 14608 cpm; cpm (tolerized with the substance, stimulated with IL-2, listed as αS2-PEP 4): 12704 cpm and 19463 cpm and 11433 cpm; cpm (tolerized with the substance, stimulated with VTP1, first line, listed as αS2-PEP 4): 6381 cpm and 6304 cpm and 6226 cpm; cpm (tolerized with the substance, stimulated with VTP1, second line, listed as αS2-PEP 4): 8231 cpm and 8478 cpm and 3154 cpm; cpm (tolerized with the substance, stimulated with VTP14, first line, listed as αS2-PEP 4): 16162 cpm and 25246 cpm; cpm (tolerized with the substance, stimulated with VTP14, second line, listed as αS2-PEP 4): 2790 cpm and 4703 cpm
3 | ISSSEEIVPNSVEQKHIQKEDVPSERYLGYEQLLRC (listed as Bos taurus) [Cas3] | – | – | – | – | – | – | – | – | – | – | – | suppress the proliferation of T-cells | proliferation of T-cells when re-stimulated with cow's milk protein after preincubation with the substance (listed as alphaS1-casein-derived peptide 3): suppressed the proliferation
